The target of assay [1] is T1, Heat shock protein HSP 90-alpha (Homo sapiens, UniProt P07900). Kind of assay: Displacement of FITC-labeled geldanamycin from human recombinant HSP90alpha after 24 hrs by fluorescence displacement assay.
In assay [2] the test system is MCF7. Kind of assay: Antiproliferative activity against human MCF7 cells assessed as cell viability after 72 hrs by MTT assay. The following applies: MCF7, 72 h. The assay is classed as functional, cell-based.
Assay [3] addresses T1, Heat shock protein HSP 90-alpha. Kind of assay: Inhibition of Hsp90alpha in human MCF7 assessed as induction of proteasomal ER2alpha protein degradation at 50 uM after 24 hrs by Western blot analysis relative to control.
Assay [4] shares this target. Kind of assay: Inhibition of Hsp90alpha in human MCF7 assessed as induction of proteasomal ER2alpha protein degradation at 100 uM after 24 hrs by Western blot analysis relative to control. A general note: Immunoblotting shows a protein as a band on a membrane.

SMILES strings stand for the structures. Active and inactive are the calls of the source. The calls are words filed in the database; no cut-off is given here.

Broadly, the IC50 is the concentration at which inhibition is half-maximal. With `CCc1cc([C@@H]2[C@@H](c3ccccc3)C(=O)N2c2ccc3c(c2)OCCO3)c(O)cc1O`, the 50% inhibitory concentration (IC50) in assay [1] is > 200 µM; in assay [2], > 100 µM.

As to `CCc1cc([C@@H]2CC(=O)N2c2ccc3c(c2)OCO3)c(O)cc1O`, the IC50 in assay [1] was > 200 µM; in assay [2] it was 31 µM.

For the molecule `CCc1cc(/C=N/c2ccc3c(c2)OCCO3)c(O)cc1O`, the IC50 is 14.5 µM in assay [1] and > 100 µM in assay [2]. In addition, the result in assay [3] was Active.

As for `C=CCNC1=C2C[C@@H](C)C[C@H](OC)[C@H](O)[C@@H](C)/C=C(\C)[C@H](OC(N)=O)[C@@H](OC)/C=C\C=C(/C)C(=O)NC(=CC1=O)C2=O` [TANESPIMYCIN], in assay [2], the IC50 is 0.09 µM.

As to `CCc1cc([C@@H]2CC(=O)N2c2ccc(OC)cc2)c(O)cc1O`, the IC50 in assay [1] is > 200 µM; in assay [2], 52 µM.

As to `COc1ccc([C@@H]2CC(=O)N2c2ccc3c(c2)OCCO3)c(OC)c1`, the IC50 is > 200 µM in assay [1] and 53 µM in assay [2].

On to `O=C1C[C@@H](c2ccc(O)cc2O)N1c1ccc2c(c1)OCCO2`, for which the results for the IC50 in assay [1] and in assay [2] were > 200 µM and 23 µM, respectively.

As for `CCc1cc(/C=N/c2ccc3c(c2)OCO3)c(O)cc1O`, the values for the IC50 in assay [1] and in assay [2] were 22.1 µM and > 100 µM, respectively. The result in assay [3] was Active.

As to `CCc1cc([C@@H]2CC(=O)N2c2ccc3c(c2)OCCO3)c(O)cc1O`, the half-inhibitory concentration (IC50) worked out at 5.6 µM in assay [1] and 48 µM in assay [2]. Also, the result in assay [3] and in assay [4] was Active.

For the molecule `COc1ccc(OC)c([C@@H]2CC(=O)N2c2ccc3c(c2)OCCO3)c1`, the concentration for half-maximal inhibition (IC50) in assay [1] was > 200 µM; in assay [2], 54 µM.

On to `CCc1cc([C@@H]2CC(=O)N2c2cc(OC)c(OC)c(OC)c2)c(O)cc1O`, for which the IC50 in assay [1] is > 200 µM; in assay [2], 31 µM.

(Values after ChEMBL document CHEMBL1828550, “Lead identification of β-lactam and related imine inhibitors of the molecular chaperone heat shock protein 90” (Bioorg Med Chem, 2011).)
